Consider 1 compound from patent US7816310B2, “Increased moisturization efficacy using hydroxyalkylurea and ammonium lactate” (Akzo Nobel N.V., priority 2003, dated 2010).

The test concerns volar forearm of panellists with dry skin. The experiment in a line: Skin Moisturization (Hydration), Corneometer CM 825. Particulars: 15% active, baseline 46.75. Type of test: in vivo. As for the experimental part: Skin Moisturization (Hydration). Aqueous solutions (along with formulated lotions) were applied to the volar forearm of panellists with dry skin. Solutions tested contained between 2.5 and 15% active levels of Hydroxyalkylurea and various moisturizing agents. The various individual moisturizing agents were also used in combination with Hydroxyalkylurea and the relative moisture contents in the skin were compared. Moisture levels were measured using a Corneometer® CM 825 (available from CK Industries) prior to and at various time intervals after application of forty microliters of each sample (Temperature ˜21° C., Relative Humidity ˜35%).

`NC(=O)NCCO` [HAU, N-2-hydroxyethylurea]: the “Relative Skin Moisture Content” value is, setting by setting: (5 min after application) 56.56; (30 min after application) 60.00; (1 hr after application) 62.95; (2 hr after application) 62.00.
